Test results taken from ChEMBL document CHEMBL1134981, “Pyrrolidine and piperidine analogues of SC-57461A as potent, orally active inhibitors of leukotriene A(4) hydrolase” (Bioorg Med Chem Lett, 2002).

Assays:
[1] = species on record: Homo sapiens; experiment: Inhibition of leukotriene B4 production in human whole blood; type: functional
[2] = test system: Mus musculus; experiment: Ex vivo inhibition of LTB4 production in mouse whole blood at 10 mg/kg; type: functional
[3] = species on record: Mus musculus; experiment: Oral potency for Ex vivo inhibition of LTB4 production in mouse whole blood; type: functional
[4] = target: T1, Leukotriene A-4 hydrolase (Homo sapiens, UniProt P09960); experiment: Inhibition of leukotriene A4 hydrolase in human recombinant assay
T1 sequence (P09960 whole entry): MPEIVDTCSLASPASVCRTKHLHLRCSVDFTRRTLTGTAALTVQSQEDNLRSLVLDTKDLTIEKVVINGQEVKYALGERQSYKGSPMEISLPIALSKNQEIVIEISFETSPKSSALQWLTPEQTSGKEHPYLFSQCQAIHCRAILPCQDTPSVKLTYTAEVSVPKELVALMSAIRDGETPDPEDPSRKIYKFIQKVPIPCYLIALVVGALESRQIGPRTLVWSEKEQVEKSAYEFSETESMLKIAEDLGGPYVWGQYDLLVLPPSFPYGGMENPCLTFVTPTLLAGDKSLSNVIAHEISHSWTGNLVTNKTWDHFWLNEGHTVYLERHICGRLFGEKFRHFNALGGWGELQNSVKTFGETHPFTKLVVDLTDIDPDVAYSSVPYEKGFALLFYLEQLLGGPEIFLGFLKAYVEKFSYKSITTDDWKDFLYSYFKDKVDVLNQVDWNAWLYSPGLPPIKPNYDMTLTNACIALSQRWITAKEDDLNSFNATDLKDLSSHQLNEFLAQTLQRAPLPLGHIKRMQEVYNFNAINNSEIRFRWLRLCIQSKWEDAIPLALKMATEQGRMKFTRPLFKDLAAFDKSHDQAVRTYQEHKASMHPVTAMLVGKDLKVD

[5] = species on record: Rattus norvegicus; experiment: The compound was tested for oral efficacy in rat reversed passive dermal Arthus model; 3-10; type: functional
[6] = test system: Rattus norvegicus; experiment: The compound was orally efficacious in rat peritoneal Leukotriene B4 production; type: functional; conditions: po
[7] = species on record: Mus musculus; experiment: Ex vivo inhibition of LTB4 production in mouse whole blood; type: functional
[8] = test system: Rhesus monkey; experiment: The compound showed excellent potency when dosed orally, inhibiting the production of Leukotriene B4; type: functional, Cercopithecidae; conditions: Macaca mulatta, po

| SMILES | IC50 [1] | inhibition in vivo at 10 mg/kg ([2]; Mus musculus, Blood) | further results |
| --- | --- | --- | --- |
| c1ccc(Cc2ccc(OCCN3CCCCC3)cc2)cc1 |  | 8% |  |
| CN(CCCOc1ccc(Cc2ccccc2)cc1)CCC(=O)O | 49 nM | > 98% | ED90 [3]: 1 mg/kg |
| COC(=O)C1CC2CC1CN2CCOc1ccc(Cc2ccccc2)cc1 (configuration not stated) | 200 nM | 50% | IC50 [4]: 47 nM |
| O=C(O)C1CCN(CCOc2ccc(Cc3ccccc3)cc2)CC1 | 290 nM |  | inhibition in vivo at 10 mg/kg [2]: 80%; IC50 [4]: 280 nM |
| NC(=O)N1CCN(CCOc2ccc(Cc3ccccc3)cc2)CC1 | 2400 nM |  |  |
| NC(=O)C1CCN(CCOc2ccc(Cc3ccccc3)cc2)CC1 | 640 nM | 95% | ED90 [3]: 3 mg/kg; IC50 [4]: 130 nM |
| OC1CCN(CCOc2ccc(Cc3ccccc3)cc2)C1 (configuration not stated) |  | 50% | IC50 [4]: 30 nM |
| CCOC(=O)CNC(=O)C1CCN(CCOc2ccc(Cc3ccccc3)cc2)CC1 | 700 nM | 91% | ED90 [3]: 3 mg/kg; IC50 [4]: 110 nM |
| NC(=O)NC1CCN(CCOc2ccc(Cc3ccccc3)cc2)CC1 | 440 nM |  |  |
| N#CC1CCN(CCOc2ccc(Cc3ccccc3)cc2)CC1 |  | 56% |  |
| c1ccc(Cc2ccc(OCCN3CCCC3)cc2)cc1 | 120 nM |  |  |
| CCOC(=O)C1CCN(CCOc2ccc(Cc3ccccc3)cc2)CC1 | 820 nM |  | ED90 [5]: 3 mg/kg; ED50 [6]: 3 mg/kg; ED90 [6]: 30 mg/kg; ED90 [7]: 3 mg/kg; IC50 [4]: 1800 nM; ED90 [8]: < 10 mg/kg |
| c1ccc(Cc2ccc(OCCN3CCC(c4nnn[nH]4)CC3)cc2)cc1 |  |  | ED90 [3]: 3 mg/kg |
| COC(=O)CC1CC2CC1CN2CCOc1ccc(Cc2ccccc2)cc1 (stereo in doubt; 26) |  | 80% | ED90 [3]: ≥ 10 mg/kg |
| COC(=O)CC1CC2CC1CN2CCOc1ccc(Cc2ccccc2)cc1 (stereo in doubt; 27) |  |  | Inhibition ([2]; 10 mg/kg): 70% |

Continued, in another order:

| IC50 [1] | SMILES | inhibition in vivo at 10 mg/kg ([2]; Mus musculus, Blood) | further results |
| --- | --- | --- | --- |
| 230 nM | COC(=O)C1CCN(CCOc2ccc(Cc3ccccc3)cc2)C1 (configuration not stated) |  |  |
| 1650 nM | CCOC(=O)C1CCCN(CCOc2ccc(Cc3ccccc3)cc2)C1 (configuration not stated) |  | IC50 [4]: > 3000 nM |
| 350 nM | NC(=O)NC1CCN(CCOc2ccc(Cc3ccccc3)cc2)C1 (configuration not stated) |  |  |
| 580 nM | OCC1CCN(CCOc2ccc(Cc3ccccc3)cc2)CC1 | 85% | IC50 [4]: 52 nM |
| 180 nM | CC(=O)NC1CCN(CCOc2ccc(Cc3ccccc3)cc2)CC1 |  |  |
| 130 nM | CNC(=O)C1CCN(CCOc2ccc(Cc3ccccc3)cc2)CC1 | 92% |  |
| 240 nM | COC(=O)CC1CCN(CCOc2ccc(Cc3ccccc3)cc2)C1 (configuration not stated) | 75% | ED90 [3]: 10 mg/kg |
| 420 nM | CC(=O)NC1CCN(CCOc2ccc(Cc3ccccc3)cc2)C1 (configuration not stated) | 22% |  |
| 1860 nM | COC(=O)[C@@H]1CCCN1CCOc1ccc(Cc2ccccc2)cc1 | 0% |  |
| 400 nM | NC(=O)CC1CCN(CCOc2ccc(Cc3ccccc3)cc2)C1 (configuration not stated) | 4% |  |
| 360 nM | NC(=O)C1CCN(CCOc2ccc(Cc3ccccc3)cc2)C1 (configuration not stated) | 60% |  |
| 290 nM | NC1CCN(CCOc2ccc(Cc3ccccc3)cc2)C1 (configuration not stated) |  |  |
